In assay [1] the target is T1, HCV genotype 1b (BK) NS3 modified enzyme with a R155K mutation (Hepatitis C virus genotype 1b, UniProt P26663, R1181K).
T1 construct: HCV genotype 1b (BK) NS3 modified enzyme
Briefly: HCV NS3 protease time-resolved fluorescence (TRF) assay, genotype 1b R155K. The conditions noted are these: Ki 1b R155K, genotype 1b (BK) NS3 R155K; single value. In kind it is biochemical. The method in brief: (§1)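 Steps: compound plus NS3/NS4A enzyme for 10 minutes; add peptide substrate to 25 nM; let cleavage proceed 6 hours at room temperature; read product fluorescence (340 nm excitation, 615 nm emission, delayed 400 μs). Enzyme levels gave signal/background 5-20.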

In assay [2] the target is HCV NS3 protease genotype 3a (3A-1) (Hepatitis C virus genotype 3a, UniProt Q81258). Nature of the assay: HCV NS3 protease time-resolved fluorescence (TRF) assay, genotype 3a. Particulars: Ki 3a. In kind it is biochemical. The procedure, abridged:
as §1

One may read the Ki as the dissociation constant of the complex between target and ligand, obtained from inhibition or displacement. With `C=C[C@@H]1C[C@]1(NC(=O)[C@@H]1C[C@@H]2CN1C(=O)[C@H](C(C)(C)C)NC(=O)O[C@@H]1C[C@H]1CCCCCc1c(nc3cc(F)ccc3c1OCCCN1CCOCC1)O2)C(=O)NS(=O)(=O)C1(C)CC1` [Example 152, (1aR,5S,8S,10R,22aR)-5-tert-butyl-N-[(1R,2S)-2-ethenyl-1-{[(1-methylcyclopropyl)sulfonyl]carbamoyl}cyclopropyl]-14-fluoro-17-[3-(morpholin-4-yl)propoxy]-3,6-dioxo-1,1a,3,4,5,6,9, 10,18,19,20,21,22,22a-tetradecahydro-8H-7,10-methanocyclopropa[18,19] [1,10,3,6]dioxadiaza cyclononadecino[11,12-b]quinoline-8-carboxamide], the inhibitory constant (Ki) amounted to 0.25 nM in assay [1] and 1.5 nM in assay [2].

Consider `C=C[C@@H]1C[C@]1(NC(=O)[C@@H]1C[C@@H]2CN1C(=O)[C@H](C(C)(C)C)NC(=O)O[C@@H]1C[C@H]1CCCCCc1c(nc3c(OC)cccc3c1OCCCN1CC3(COC3)C1)O2)C(=O)NS(=O)(=O)C1(C)CC1` [Example 153, (1aR,5S,8S,10R,22aR)-5-tert-butyl-N-[(1R,2S)-2-ethenyl-1-{[(1-methylcyclopropyl)sulfonyl]carbamoyl}cyclopropyl]-13-methoxy-17-[3-(2-oxa-6-azaspiro[3.3]hept-6-yl)propoxy]-3,6-dioxo-1,1a, 3,4,5,6,9,10,18,19,20,21,22,22a-tetradeca hydro-8H-7,10-methanocyclopropa[18,19][1,10,3,6] dioxadiazacyclononadecino [11,12-b]quinoline-8-carboxamide], for which the Ki in assay [1] was 0.059 nM; in assay [2], 0.61 nM.

As for `C=C[C@@H]1C[C@]1(NC(=O)[C@@H]1C[C@@H]2CN1C(=O)[C@H](C(C)(C)C)NC(=O)O[C@@H]1C[C@H]1CCCCCc1c(nc3ccccc3c1OCCCN1CC3(CCC3)C1)O2)C(=O)NS(=O)(=O)C1(C)CC1` [Example 154, (1aR,5S,8S,10R,22aR)-17-[3-(2-azaspiro[3.3]hept-2-yl)propoxy]-5-tert-butyl-N-[(1R,2S)-2-ethenyl-1-{[(1-methylcyclopropyl)sulfonyl]carbamoyl}cyclopropyl]-3,6-dioxo-1,1a,3,4,5,6,9,10,18,19,20, 21,22,22a-tetradecahydro-8H-7,10-methanocyclopropa[18,19] [1,10,3,6]dioxadiazacyclononadecino [11,12-b]quinoline-8-carboxamide], the Ki came out at 0.11 nM in assay [1] and 1.5 nM in assay [2].

As to `C=C[C@@H]1C[C@]1(NC(=O)[C@@H]1C[C@@H]2CN1C(=O)[C@H](C(C)(C)C)NC(=O)O[C@@H]1C[C@H]1CCCCCc1c(nc3ccccc3c1OCCCN1CC(F)C1)O2)C(=O)NS(=O)(=O)C1(C)CC1` [Example 155, (1aR,5S,8S,10R,22aR)-5-tert-butyl-N-[(1R,2S)-2-ethenyl-1-{[(1-methylcyclopropyl)sulfonyl]carbamoyl}cyclopropyl]-17-[3-(3-fluoroazetidin-1-yl)propoxy]-3,6-dioxo-1,1a,3,4,5,6,9,10,18,19,20, 21,22,22a-tetradecahydro-8H-7,10-methanocyclopropa[18,19][1,10,3,6] dioxadiazacyclononadecino [11,12-b]quinoline-8-carboxamide], the Ki in assay [1] was found to be 0.11 nM; in assay [2], 1.4 nM.

Consider `C=C[C@@H]1C[C@]1(NC(=O)[C@@H]1C[C@@H]2CN1C(=O)[C@H](C(C)(C)C)NC(=O)O[C@@H]1C[C@H]1CCCCCc1c(nc3ccccc3c1OCCCN1CCC(OC)CC1)O2)C(=O)NS(=O)(=O)C1(C)CC1` [Example 156, (1aR,5S,8S,10R,22aR)-5-tert-butyl-N-[(1R,2S)-2-ethenyl-1-{[(1-methylcyclopropyl)sulfonyl]carbamoyl}cyclopropyl]-17-[3-(4-methoxypiperidin-1-yl)propoxy]-3,6-dioxo-1,1a,3,4,5,6,9, 10,18,19,20,21,22,22a-tetradecahydro-8H-7,10-methanocyclopropa[18,19] [1,10,3,6]dioxadiaza cyclononadecino[11,12-b]quinoline-8-carboxamide], for which the Ki was determined as 0.079 nM in assay [1] and 0.84 nM in assay [2].

For `C=C[C@@H]1C[C@]1(NC(=O)[C@@H]1C[C@@H]2CN1C(=O)[C@H](C(C)(C)C)NC(=O)O[C@@H]1C[C@H]1CCCCCc1c(nc3ccccc3c1OCCCN1CC(OC)C1)O2)C(=O)NS(=O)(=O)C1(C)CC1` [Example 157, (1aR,5S,8S,10R,22aR)-5-tert-butyl-N-[(1R,2S)-2-ethenyl-1-{[(1-methylcyclopropyl)sulfonyl]carbamoyl}cyclopropyl]-17-[3-(3-methoxyazetidin-1-yl)propoxy]-3,6-dioxo-1,1a,3,4,5,6,9,10, 18,19,20,21,22,22a-tetradecahydro-8H-7,10-methanocyclopropa[18,19] [1,10,3,6]dioxadiazacyclononadecino [11,12-b]quinoline-8-carboxamide], the Ki in assay [1] was 0.049 nM; in assay [2], 0.76 nM.

`C=C[C@@H]1C[C@]1(NC(=O)[C@@H]1C[C@@H]2CN1C(=O)[C@H](C(C)(C)C)NC(=O)O[C@@H]1C[C@H]1CCCCCc1c(nc3ccccc3c1OCCCN1CCCC(F)C1)O2)C(=O)NS(=O)(=O)C1(C)CC1` (stereo partly drawn) [Example 158, (1aR,5S,8S,10R,22aR)-5-tert-butyl-N-[(1R,2S)-2-ethenyl-1-{[(1-methylcyclopropyl)sulfonyl]carbamoyl}cyclopropyl]-17-[3-(3-fluoropiperidin-1-yl)propoxy]-3,6-dioxo-1,1a,3,4,5,6,9,10,18,19, 20,21,22,22a-tetradecahydro-8H-7,10-methanocyclopropa[18,19][1,10,3,6] dioxadiazacyclononadecino[11,12-b] quinoline-8-carboxamide]: the Ki is 0.19 nM in assay [1] and 2.6 nM in assay [2].

For `C=C[C@@H]1C[C@]1(NC(=O)[C@@H]1C[C@@H]2CN1C(=O)[C@H](C(C)(C)C)NC(=O)O[C@@H]1C[C@H]1CCCCCc1c(nc3cc(C(C)C)ccc3c1OCCCN1CCCC1)O2)C(=O)NS(=O)(=O)C1(C)CC1` [Example 159, (1aR,5S,8S,10R,22aR)-5-tert-butyl-N-[(1R,2S)-2-ethenyl-1-{[(1-methylcyclopropyl)sulfonyl]carbamoyl}cyclopropyl]-3,6-dioxo-14-(propan-2-yl)-17-[3-(pyrrolidin-1-yl)propoxy]-1,1a,3,4,5,6,9, 10,18,19,20,21,22,22a-tetradecahydro-8H-7,10-methanocyclopropa[18,19] [1,10,3,6]dioxadiazacyclononadecino [11,12-b]quinoline-8-carboxamide], the Ki in assay [1] worked out at 0.05 nM; in assay [2], 0.53 nM.

As for `C=C[C@@H]1C[C@]1(NC(=O)[C@@H]1C[C@@H]2CN1C(=O)[C@H](C(C)(C)C)NC(=O)O[C@@H]1C[C@H]1CCCCCc1c(nc3cc(C(C)C)ccc3c1OCCCNC(C)C)O2)C(=O)NS(=O)(=O)C1(C)CC1` [Example 160, (1aR,5S,8S,10R,22aR)-5-tert-butyl-N-[(1R,2S)-2-ethenyl-1-{[(1-methylcyclopropyl)sulfonyl]carbamoyl}cyclopropyl]-3,6-dioxo-14-(propan-2-yl)-17-[3-(propan-2-ylamino)propoxy]-1,1a,3,4,5,6,9, 10,18,19,20,21,22,22a-tetradeca hydro-8H-7,10-methanocyclopropa[18,19] [1,10,3,6]dioxadiazacyclononadecino [11,12-b]quinoline-8-carboxamide], the Ki is 0.053 nM in assay [1] and 0.44 nM in assay [2].

Regarding `C=C[C@@H]1C[C@]1(NC(=O)[C@@H]1C[C@@H]2CN1C(=O)[C@H](C(C)(C)C)NC(=O)O[C@@H]1C[C@H]1CCCCCc1c(nc3cc(C(C)C)ccc3c1OCCCN1CCOCC1)O2)C(=O)NS(=O)(=O)C1(C)CC1` [Example 161, (1aR,5S,8S,10R,22aR)-5-tert-butyl-N-[(1R,2S)-2-ethenyl-1-{[(1-methylcyclopropyl)sulfonyl]carbamoyl}cyclopropyl]-17-[3-(morpholin-4-yl)propoxy]-3,6-dioxo-14-(propan-2-yl)-1,1a,3,4,5,6,9,10,18,19,20,21,22,22a-tetradecahydro-8H-7,10-methanocyclopropan[18,19] [1,10,3,6]dioxadiazacyclononadecino [11,12-b]quinoline-8-carboxamide], the Ki in assay [1] was determined as 0.31 nM; in assay [2] it was 2.8 nM.

For `C=C[C@@H]1C[C@]1(NC(=O)[C@@H]1C[C@@H]2CN1C(=O)[C@H](C(C)(C)C)NC(=O)O[C@@H]1C[C@H]1CCCCCc1c(nc3cc(C(C)C)ccc3c1OCCCN1CCS(=O)(=O)CC1)O2)C(=O)NS(=O)(=O)C1(C)CC1` [Example 162, (1aR,5S,8S,10R,22aR)-5-tert-butyl-17-[3-(1,1-dioxidothiomorpholin-4-yl)propoxy]-N-[(1R,2S)-2-ethenyl-1-{[(1-methylcyclopropyl)sulfonyl]carbamoyl}cyclopropyl]-3,6-dioxo-14-(propan-2-yl)-1,1a,3,4,5,6,9,10,18, 19,20,21,22,22a-tetradecahydro-8H-7,10-methanocyclopropa[18,19] [1,10,3,6]dioxadiazacyclononadecino [11,12-b]quinoline-8-carboxamide], the Ki in assay [1] turned out to be 0.18 nM; in assay [2], 1.7 nM.

On to `C=C[C@@H]1C[C@]1(NC(=O)[C@@H]1C[C@@H]2CN1C(=O)[C@H](C(C)(C)C)NC(=O)O[C@@H]1C[C@H]1CCCCCc1c(nc3cc(C(C)C)ccc3c1OCCCN1C[C@@H]3C[C@H]1CO3)O2)C(=O)NS(=O)(=O)C1(C)CC1` [Example 164, (1aR,5S,8S,10R,22aR)-5-tert-butyl-N-[(1R,2S)-2-ethenyl-1-{[(1-methylcyclopropyl)sulfonyl]carbamoyl}cyclopropyl]-17-{3-[(1S,4S)-2-oxa-5-azabicyclo[2.2.1]hept-5-yl]propoxy}-3,6-dioxo-14-(propan-2-yl)-1,1a,3,4,5,6,9,10,18,19,20, 21,22,22a-tetradecahydro-8H-7,10-methanocyclopropa[18,19][1,10,3,6] dioxadiazacyclononadecino [11,12-b]quinoline-8-carboxamide], for which the results for the Ki in assay [1] and in assay [2] were 0.096 nM and 1.2 nM, respectively.

The values are drawn from patent US9328138B2 (priority 2011, dated 2016).
